From patent US8252832B2, “Kinesin inhibitors as cancer therapeutics” (Novartis AG, priority 2007, dated 2012)
Like-named read-outs stand apart in the source and are kept apart here.

Columns and labels:
Assay in all cases: CellTiter-Glo, NCI60 panel
Format in all cases: cell-based
MDA-MB-231 = conditions: Breast; for GI50: Homo sapiens
Text: (§1) Identification of tumor types that are the most sensitive to the KSP inhibitors of the present invention can be accomplished using an unbiased approach that uses several cell-based assays. The assays chosen were as follows: • CellTiter-Glo®. This is an assay designed to measure ATP concentration in a cell culture, and can be correlated to cell number. Briefly CellTiter-Glo® (Promega Corporation) is a homogeneous method using the single CellTiter-Glo® reagent to detect ATP wherein ATP in the assay drives the activity of a thermostable luciferase to create a luminescent signal which can then be measured and correlated with the number of viable cells. Briefly, for adherent cells, 1,000 to 5,000 cells/well were plated in 96-well plates (100 μl/well) and let to adhere for 24 hours before being treated with drug. For non-adherent cells, 1,000 to 10,000 cells/well were plated in 96-well plates (100 μl/well) and immediately treated with drug. Drug dilutions were prepared in DMSO at 1000 times the final concentration. These dilutions were then diluted 1/100 in growth media before being added to the cells (11 μl/well) to achieve the desired final concentration. After 48 h in a 37° C. tissue culture incubator, the plates were processed for the CellTiter-Glo®assay according to the manufacturer's instructions. Protocol for a 72 hour cell proliferation assay: The 72 hour assay was performed the same way as the 48 hour assay except for the following modifications: For adherent cells, 500 to 5,000 cells/well were plated in 96-well plates (90 μl/well cell growth media) and left to adhere for 24 hours before being treated with drug. For non-adherent cells, 1,000 to 10,000 cells/well were plated in 96-well plates (90 μl/well cell growth media) and immediately treated with drug. Data values presented represent the concentration of test compound required for a 50% reduction in growth. • LDH release. The Cytotoxicity Detection KitPLUS (LDH) assay (Roche Diagnostics, Manheim, Germany) measures the amount of LDH released in the media by dying cells; LDH catalyzes the conversion of lactate into pyruvate. The enzymatic reaction is coupled to a chemical reaction that uses a tetrazolium salt to form a formazan that is red and can be detected by its absorbance at 490 nm. This assay measures the amount of cell death after drug treatment. Cells were plated at 10,000 cells/well in 96-well plates (100 μl/well). Adherent cells were let to adhere for 24 hours before being treated with drug, whereas non-adherent cells were immediately treated with drug. Drug dilutions were prepared in DMSO at 1000 times the final concentration. These dilutions were then diluted 1/100 in growth media before being added to the cells (11 μl/well) to achieve the desired final concentration. After 48 h in a 37° C. tissue culture incubator, the plates were processed for the Cytotoxicity Detection KitPLUS (LDH) assay according to the manufacturer's instructions. The media only values were subtracted from all the data points before analysis. Data values presented correspond to the compound concentration wherein LDH output is at half maximal level. • Caspase-Glo® 3/7. The Caspase-Glo® 3/7 Assay (Promega Corporation) is a homogeneous luminescent assay that measures caspase-3/7 activities. The assay provides a proluminescent caspase-3/7 DEVD-aminoluciferin substrate and a thermostable luciferase in a reagent optimized for caspase-3/7 activity, luciferase activity and cell lysis. Adding the single Caspase-Glo® 3/7 Reagent results in cell lysis, followed by caspase cleavage of the substrate. This liberates free aminoluciferin, which is consumed by the luciferase, generating a luminescent signal. The signal is proportional to caspase-3/7 activity. Data values presented correspond to the compound concentration wherein caspase 3/7 activity is at half maximal level. […]

786-0 = conditions: Renal; for GI50: Homo sapiens
Text: as §1

CCRF-CEM = conditions: Leukemia; for GI50: Homo sapiens
Text: as §1

SK-MEL-2 = conditions: Melanoma; for GI50: Homo sapiens
Text: as §1

NCI-H226 = conditions: NSCL; for GI50: Homo sapiens
Text: as §1

U251 = conditions: for GI50: Homo sapiens, U-251, CNS
Text: as §1

SW-620 = conditions: Colon; for GI50: Homo sapiens
Text: as §1

UACC-257 = conditions: Melanoma; for GI50: Homo sapiens
Text: as §1

IGROV1 = conditions: for GI50: Homo sapiens, IGROV-1, Ovarian
Text: as §1

NCI-H522 = conditions: NSCL; for GI50: Homo sapiens
Text: as §1

NCI-H23 = conditions: NSCL; for GI50: Homo sapiens
Text: as §1

SF-268 = conditions: CNS; for GI50: Homo sapiens
Text: as §1

SNB-19 = conditions: CNS; for GI50: Homo sapiens
Text: as §1

HS 578T = conditions: Breast; for GI50: Homo sapiens
Text: as §1

MDA-MB-435 = conditions: Melanoma; for GI50: Homo sapiens
Text: as §1

SK-MEL-5 = conditions: Melanoma; for GI50: Homo sapiens
Text: as §1

[1] = GI50 in nM, read-out: Log(GI50) (converted)

Structure (SMILES): CC(C)(C)[C@H](c1nc(-c2cc(F)ccc2F)cn1Cc1ccccc1)N(CC[C@H](N)CF)C(=O)CO [Compound IIa]
- Differential vs mean Log(GI50) (MDA-MB-231): 0.809
- GI50 (MDA-MB-231; [1]): 0.333 nM
- GI50 (MDA-MB-231; read-out: GI50): 0.333 nM
- GI50 (786-0; [1]): 10 nM
- GI50 (786-0; read-out: GI50): 10 nM
- Differential vs mean Log(GI50) (786-0): −0.669
- GI50 (CCRF-CEM; [1]): 0.215 nM
- GI50 (CCRF-CEM; read-out: GI50): 0.215 nM
- Differential vs mean Log(GI50) (CCRF-CEM): 0.999
- GI50 (SK-MEL-2; [1]): 2.77 nM
- GI50 (SK-MEL-2; read-out: GI50): 2.77 nM
- Differential vs mean Log(GI50) (SK-MEL-2): −0.112
- GI50 (NCI-H226; [1]): 10 nM
- GI50 (NCI-H226; read-out: GI50): 10 nM
- Differential vs mean Log(GI50) (NCI-H226): −0.669
- Differential vs mean Log(GI50) (U251; CNS): 0.953
- GI50 (U251; [1]): 0.239 nM
- GI50 (U251; read-out: GI50): 0.239 nM
- Differential vs mean Log(GI50) (SW-620): 0.958
- GI50 (SW-620; [1]): 0.236 nM
- GI50 (SW-620; read-out: GI50): 0.236 nM
- GI50 (UACC-257; [1]): 10 nM
- GI50 (UACC-257; read-out: GI50): 10 nM
- Differential vs mean Log(GI50) (UACC-257): −0.669
- GI50 (IGROV1; [1]): 10 nM
- GI50 (IGROV1; read-out: GI50): 10 nM
- Differential vs mean Log(GI50) (IGROV1; Ovarian): −0.669
- GI50 (NCI-H522; [1]): 0.166 nM
- GI50 (NCI-H522; read-out: GI50): 0.166 nM
- Differential vs mean Log(GI50) (NCI-H522): 1.111
- GI50 (NCI-H23; [1]): 0.223 nM
- GI50 (NCI-H23; read-out: GI50): 0.223 nM
- Differential vs mean Log(GI50) (NCI-H23): 0.983
- Differential vs mean Log(GI50) (SF-268): −0.669
- GI50 (SF-268; [1]): 10 nM
- GI50 (SF-268; read-out: GI50): 10 nM
- Differential vs mean Log(GI50) (SNB-19): −0.669
- GI50 (SNB-19; [1]): 10 nM
- GI50 (SNB-19; read-out: GI50): 10 nM
- Differential vs mean Log(GI50) (HS 578T): 0.989
- GI50 (HS 578T; [1]): 0.22 nM
- GI50 (HS 578T; read-out: GI50): 0.22 nM
- GI50 (MDA-MB-435; [1]): 0.152 nM
- GI50 (MDA-MB-435; read-out: GI50): 0.152 nM
- Differential vs mean Log(GI50) (MDA-MB-435): 1.149
- GI50 (SK-MEL-5; [1]): 10 nM
- GI50 (SK-MEL-5; read-out: GI50): 10 nM
- Differential vs mean Log(GI50) (SK-MEL-5): −0.669
